Structures can show the parent of a compound that is named as a salt. Where two headings read alike, the source gives them in different places.
Key:
[1] = molecular target: T1, E. feacalis DltA (Enterococcus faecalis, UniProt Q830N0); test: biochemical
T1 sequence (Q830N0 1-506): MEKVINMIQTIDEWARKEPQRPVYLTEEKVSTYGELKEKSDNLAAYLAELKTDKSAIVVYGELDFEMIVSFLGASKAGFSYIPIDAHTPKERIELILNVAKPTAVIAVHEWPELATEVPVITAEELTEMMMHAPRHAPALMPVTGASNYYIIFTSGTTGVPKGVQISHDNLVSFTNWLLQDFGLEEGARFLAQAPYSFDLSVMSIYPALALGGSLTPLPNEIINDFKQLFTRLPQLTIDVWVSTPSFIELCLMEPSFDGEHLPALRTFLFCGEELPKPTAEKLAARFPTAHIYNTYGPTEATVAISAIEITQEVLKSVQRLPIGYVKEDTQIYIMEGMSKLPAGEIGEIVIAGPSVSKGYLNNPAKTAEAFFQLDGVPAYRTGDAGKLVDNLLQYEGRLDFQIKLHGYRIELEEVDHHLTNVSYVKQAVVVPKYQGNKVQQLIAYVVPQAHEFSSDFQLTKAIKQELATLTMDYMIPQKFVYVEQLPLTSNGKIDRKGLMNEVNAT
Protocol: (§1) To this end, recombinant proteins DltA were expressed and purified after cloning of the genes of S. aureus, E. faecalis, E. faecium and S. agalactiae as described thereafter. The capacity of the compounds of the invention to inhibit DltA enzymatic activity was assessed using the DltA assays as described below: • The dltA gene was amplified from chromosomal DNA of S. aureus, E. faecalis, E. faecium and S. agalactiae and introduced into E. coli BL21 (Invitrogen, Carlsbad, CA) following manufacturer's instruction. Bacteria were grown at 37°C under aerobic conditions and isopropyl-beta-D-thiogalactopyranoside (IPTG) was added to 0.5-1 mM when OD600 of the bacterial culture had reached 0.5. After a further incubation for 3 hours, cells were harvested by centrifugation. Purification of the recombinant DltA protein was performed by affinity chromatography on nickel-nitrilotriacetic acid (Ni-NTA) column following manufacturer's instructions (Qiagen). Fractions containing recombinant DltA protein were adjusted to 50% glycerol and stored at -20°C until use.
(§2) The binding potency of the inhibitors against DltA enzyme was assessed by IC50 determination in an in vitro DltA activity assay. The assay buffer "AB" contained 50 mM Hepes pH8.0, 10mM MgCl2, 50mM KCI, 0.012% Triton-X100, 10mM DTT and 100nM Myelin-basic protein. The following components were added in a white polystyrene Costar plate up to a final volume of 30µL: 3µL DMSO, or inhibitor dissolved in DMSO and 27µL DltA enzyme in AB. After 30min of preincubation at room temperature, 30µL of Substrates mix in AB were added in each well to a final volume of 60µL. This reaction mixture was then composed of DltA (produced in house from S. aureus, E. faecalis, E. faecium and S. agalactiae), 0.5mM D-Alanine (Sigma), 0.5-5µM ATP (Sigma) and 0.05 u/ml inorganic pyrophosphatase (Sigma) in assay buffer. After typically 1-2hours of incubation at room temperature (conversion rate around 30%), 30µL of the revelation mix were added to a final volume of 90µL, including the following constituents at the respective final concentrations: 10000 u/ml luciferase (Sigma), 30µM D-luciferin (Sigma), 100µM N-acetylcysteamine (Aldrich). Luminescence intensity was immediately measured on a Fluostar Optima (BMG) (excitation 360nm, emission 520nm) and converted into inhibition percentages.
(§3) For compounds interfering with the luminescent signal (quenching), the same experiment without DltA enzyme was performed to allow quenching determination and correction.

[2] = molecular target: T2, S. Agalactiae DltA (Streptococcus agalactiae serotype III, UniProt Q8VM67); test: biochemical
T2 sequence (Q8VM67 1-511): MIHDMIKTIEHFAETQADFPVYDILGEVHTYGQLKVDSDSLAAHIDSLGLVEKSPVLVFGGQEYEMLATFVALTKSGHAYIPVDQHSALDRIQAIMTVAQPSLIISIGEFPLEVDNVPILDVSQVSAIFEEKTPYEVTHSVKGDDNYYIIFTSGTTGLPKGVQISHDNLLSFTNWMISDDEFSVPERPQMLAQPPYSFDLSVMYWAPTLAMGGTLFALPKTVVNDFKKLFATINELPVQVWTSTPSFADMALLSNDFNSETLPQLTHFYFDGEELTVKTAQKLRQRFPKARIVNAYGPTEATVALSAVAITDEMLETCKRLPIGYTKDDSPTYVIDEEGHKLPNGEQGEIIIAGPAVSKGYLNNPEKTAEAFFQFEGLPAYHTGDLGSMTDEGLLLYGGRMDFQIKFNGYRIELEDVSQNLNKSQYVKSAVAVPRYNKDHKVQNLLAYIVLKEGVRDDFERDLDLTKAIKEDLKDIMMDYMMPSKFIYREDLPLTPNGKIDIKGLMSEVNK
Protocol: as §1, §2, §3

[3] = molecular target: T3, S. aureus DltA (Staphylococcus aureus, UniProt Q2FZW6); test: in vitro DltA activity assay (luminescence, IC50 determination); format: biochemical
T3 construct: made in house; host or cells: E. coli BL21
T3 sequence (Q2FZW6 1-485): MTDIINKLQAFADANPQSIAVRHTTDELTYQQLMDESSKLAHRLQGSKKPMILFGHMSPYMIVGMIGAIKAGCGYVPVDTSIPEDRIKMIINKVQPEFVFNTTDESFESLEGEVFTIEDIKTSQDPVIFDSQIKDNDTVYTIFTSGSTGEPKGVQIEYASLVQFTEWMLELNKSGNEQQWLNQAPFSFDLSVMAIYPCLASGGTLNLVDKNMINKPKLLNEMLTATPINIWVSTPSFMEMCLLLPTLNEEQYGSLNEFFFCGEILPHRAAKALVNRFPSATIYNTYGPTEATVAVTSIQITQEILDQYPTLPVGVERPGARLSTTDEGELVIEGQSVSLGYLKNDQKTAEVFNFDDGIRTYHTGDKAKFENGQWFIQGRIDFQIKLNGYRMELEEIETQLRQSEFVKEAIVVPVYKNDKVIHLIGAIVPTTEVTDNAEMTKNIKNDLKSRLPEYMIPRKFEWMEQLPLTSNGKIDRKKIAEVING
Protocol: as §1, with “The effect of the compounds of the invention on DltA enzymes has been based on the measure of their inhibition of DltA activity in vitro. To” for “To”
as §2, §3

[4] = molecular target: T4, E. feacium DltA (Enterococcus faecium, UniProt Q3XZT7); test: as above; format: biochemical
T4 sequence (Q3XZT7 1-504): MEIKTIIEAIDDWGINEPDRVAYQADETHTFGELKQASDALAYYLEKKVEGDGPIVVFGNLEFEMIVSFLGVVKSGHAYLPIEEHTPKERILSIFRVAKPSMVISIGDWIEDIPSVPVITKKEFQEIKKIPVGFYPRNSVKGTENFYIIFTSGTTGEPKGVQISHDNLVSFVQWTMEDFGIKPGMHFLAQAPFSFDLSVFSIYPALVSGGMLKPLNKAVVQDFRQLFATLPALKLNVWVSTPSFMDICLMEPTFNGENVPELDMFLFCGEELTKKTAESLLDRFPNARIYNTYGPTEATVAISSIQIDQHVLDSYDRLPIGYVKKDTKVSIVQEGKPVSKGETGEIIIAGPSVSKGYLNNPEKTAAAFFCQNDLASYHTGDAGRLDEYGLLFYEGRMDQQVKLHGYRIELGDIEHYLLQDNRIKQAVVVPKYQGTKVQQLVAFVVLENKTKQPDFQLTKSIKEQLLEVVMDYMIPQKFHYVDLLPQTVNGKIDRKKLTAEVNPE
Protocol: as §1, with “The effect of the compounds of the invention on DltA enzymes has been based on the measure of their inhibition of DltA activity in vitro. To” for “To”
as §2, §3

[5] = recombinant DltA, 30min preincubation at room temperature, 0.5mM D-Alanine, 0.5-5µM ATP, read-out: E. feacium DltA IC50

Structure (SMILES) | IC50 [1] | IC50 [2] | IC50 [3] | IC50 [4, 5] | IC50 [4]
O=c1[nH]cnc2c(-c3ccc4c(c3)ncn4C3CCCCC3)cn(C3CCCC(O)C3)c12 (racemic) [Example 70A, 7-(1-Cyclohexyl-1H-benzimidazol-5-yl)-5-(3-hydroxy-cyclohexyl)-3,5-dihydro-pyrrolo[3,2-d]pyrimidin-4-one] | 570 nM | 2400 nM | 660 nM | 920 nM | 
O=c1[nH]cnc2c(-c3ccc4c(c3)ncn4C3CCCCC3)cn(C3CCC(O)C3)c12 (racemic) [Example 71A, 7-(1-Cyclohexyl-1H-benzimidazol-5-yl)-5-(3-hydroxy-cyclopentyl)-3,5-dihydro-pyrrolo[3,2-d]pyrimidin-4-one] | 360 nM | 2700 nM | 360 nM | 890 nM | 
O=c1[nH]cnc2c(-c3ccc4c(c3)ncn4C3CCCCC3)sc(N3CC[C@H](CO)C3)c12 [Example 7, 7-(1-Cyclohexyl-1H-benzoimidazol-5-yl)-5-((S)-3-hydroxymethyl-pyrrolidin-1-yl)-3H-thieno[3,4-d]pyrimidin-4-one] | 37 nM | 3200 nM | 70 nM | 120 nM | 
O=c1[nH]cnc2c(-c3ccc4c(c3)ncn4C3CCCCC3)sc(N3CCC(CCO)C3)c12 (stereo not drawn) [Example 11, 7-(1-Cyclohexyl-1H-benzoimidazol-5-yl)-5-[3-(2-hydroxy-ethyl)-pyrrolidin-1-yl]-3H-thieno[3,4-d]pyrimidin-4-one] | 120 nM | 5400 nM | 140 nM | 190 nM | 
O=c1[nH]cnc2c(-c3ccc4c(c3)ncn4C3CCCCC3)sc(N3CCC(CO)(CO)C3)c12 [Example 13, 5-(3,3-Bis-hydroxymethyl-pyrrolidin-1-yl)-7-(1-cyclohexyl-1H-benzoimidazol-5-yl)-3H-thieno[3,4-d]pyrimidin-4-one] | 41 nM | 980 nM | 44 nM | 140 nM | 
O=c1[nH]cnc2c(-c3ccc4c(c3)ncn4C3CCCCC3)sc(N3CC4C(O)C4C3)c12 (stereo not drawn) [Example 17, 7-(1-Cyclohexyl-1H-benzoimidazol-5-yl)-5-(6-hydroxy-3-aza-bicyclo[3.1.0]hex-3-yl)-3H-thieno[3,4-d]pyrimidin-4-one] | 85 nM | 2200 nM | 220 nM | 190 nM | 
O=c1[nH]cnc2c(-c3ccc4c(c3)ncn4C3CCCCC3)sc(N3CC4CNCC4C3)c12 (stereo not drawn) [Example 25, 7-(1-Cyclohexyl-1H-benzoimidazol-5-yl)-5-(hexahydro-pyrrolo[3,4-c]pyrrol-2-yl)-3H-thieno[3,4-d]pyrimidin-4-one hydrochloride] | 22 nM | 630 nM | 39 nM | 88 nM | 
O=c1[nH]cnc2c(-c3ccc4c(c3)ncn4C3CCCCC3)sc(N3CCNCC3)c12 [Example 28, 7-(1-cyclohexyl-1H-benzoimidazol-5-yl)-5-piperazin-1-yl-3H-thieno[3,4-d]pyrimidin-4-one hydrochloride] | 48 nM | 1200 nM | 150 nM | 160 nM | 
O=c1[nH]cnc2c(-c3ccc4c(c3)ncn4C3CCCCC3)sc(N3C[C@@H]4[C@@H](CO)[C@@H]4C3)c12 [Example 30, 7-(1-Cyclohexyl-1H-benzimidazol-5-yl)-5-((1R,5S,6R)-6-hydroxymethyl-3-aza-bicyclo[3.1.0]hex-3-yl)-3H-thieno[3,4-d]pyrimidin-4-one] | 160 nM | 2000 nM | 220 nM | 320 nM | 
O=c1[nH]cnc2c(-c3ccc4c(c3)ncn4C3CCCCC3)sc(N3CC4CNCC4(CO)C3)c12 (stereo not drawn) [Example 34, 7-(1-cyclohexyl-1H-benzoimidazol-5-yl)-5-hydroxymethyl-hexahydro-pyrrolo[3,4-c]pyrrol-2-yl)-3H-thieno[3,4-d]pyrimidin-4-one hydrochloride] | 14 nM | 400 nM | 27 nM |  | 61 nM
CC1CCCC(n2cnc3cc(-c4sc(N5CC[C@H](CO)C5)c5c(=O)[nH]cnc45)ccc32)C1 (stereo partly drawn) [Example 48] |  |  | 68 nM | 110 nM | 

Reference: EP2913333A1 (priority 2014, dated 2015)
